Test results published in US10722501B2 (BAYER AKTIENGESELLSCHAFT, priority 2016, dated 2020).

Molecular target: T1, recombinant full-length human prolyl endopeptidase (PREP) (Homo sapiens, UniProt P48147)
T1 construct: To recombinant full-length human prolyl endopeptidase (PREP, R&D-Systems, 4308-SE); purchased R&D-Systems 4308-SE
T1 sequence (P48147 1-710): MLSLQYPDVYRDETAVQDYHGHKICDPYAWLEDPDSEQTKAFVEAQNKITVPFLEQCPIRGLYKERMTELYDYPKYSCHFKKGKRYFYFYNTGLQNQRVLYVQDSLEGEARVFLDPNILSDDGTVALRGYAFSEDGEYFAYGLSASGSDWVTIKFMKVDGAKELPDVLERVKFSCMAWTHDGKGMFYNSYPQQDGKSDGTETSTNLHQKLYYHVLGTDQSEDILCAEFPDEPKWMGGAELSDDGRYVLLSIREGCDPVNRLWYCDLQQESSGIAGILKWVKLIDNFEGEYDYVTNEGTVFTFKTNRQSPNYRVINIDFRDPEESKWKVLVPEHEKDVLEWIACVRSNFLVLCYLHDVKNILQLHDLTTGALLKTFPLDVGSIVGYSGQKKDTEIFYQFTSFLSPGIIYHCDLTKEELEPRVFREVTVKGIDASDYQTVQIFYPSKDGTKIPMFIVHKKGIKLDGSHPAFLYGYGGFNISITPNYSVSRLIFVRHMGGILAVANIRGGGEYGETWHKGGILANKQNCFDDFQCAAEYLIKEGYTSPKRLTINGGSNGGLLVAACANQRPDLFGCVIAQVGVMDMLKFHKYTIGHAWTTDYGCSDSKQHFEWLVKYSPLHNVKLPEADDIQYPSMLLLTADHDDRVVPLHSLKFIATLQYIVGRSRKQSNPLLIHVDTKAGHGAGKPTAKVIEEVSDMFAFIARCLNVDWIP
Experiment: Biochemical human prolyl endopeptidase (PREP) assay with fluorescently labelled substrate
Conditions: substrate Z-Gly-Pro-AMC 50 μM, 32° C., 60 min; some as mean values from multiple independent determinations
How it was run: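 0.4 nM (final, example) recombinant PREP in pH 7.5 Tris buffer with EDTA, GSH, BSA and Brij-35; compounds at 1 nM to 30 μM. Reaction started with 50 μM Z-Gly-Pro-AMC and followed by fluorescence (ex 360/em 465 nm) at 32° C for 60 min. IC50 interpolated from percent activity based on initial slopes.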

| Structure (SMILES) | IC50 [nM] |
| --- | --- |
| O=C(C1C(C(F)(F)F)CCc2nn(Cc3ccnc(C(F)(F)F)c3F)c(=O)n21)N1CC(F)C1 (single isomer, unassigned) [Example 303, (5RS,6RS)-5-[(3-Fluoroazetidin-1-yl)carbonyl]-2-{[3-fluoro-2-(trifluoromethyl)pyridin-4-yl]methyl}-6-(trifluoromethyl)-5,6,7,8-tetrahydro[1,2,4]triazolo[4,3-a]pyridin-3(2H)-one] | 35 |
| O=C([C@@H]1CCCc2nn(Cc3cccc(C(F)(F)F)n3)c(=O)n21)N1C[C@@H](F)[C@@H](F)C1 [Example 371, (5S)-5-{[(3R,4S)-3,4-Difluoropyrrolidin-1-yl]carbonyl}-2-{[6-(trifluoromethyl)pyridin-2-yl]methyl}-5,6,7,8-tetrahydro[1,2,4]triazolo[4,3-a]pyridin-3(2H)-one] | 1.2 |
| O=C([C@@H]1CCCc2nn(Cc3ccc(C(F)(F)F)nc3)c(=O)n21)N1CC(F)C(F)C1 (single isomer, unassigned) [Example 553] | 575 |
| O=C([C@@H]1CCCc2nn(Cc3cc(C(F)(F)F)nc4ccccc34)c(=O)n21)N1CC(F)C1 [Example 494, (5S)-5-[(3-Fluoroazetidin-1-yl)carbonyl]-2-{[2-(trifluoromethyl)quinolin-4-yl]methyl}-5,6,7,8-tetrahydro[1,2,4]triazolo[4,3-a]pyridin-3(2H)-one] | 0.91 |
| Cc1ccc(C(C)n2nc3n(c2=O)[C@H](C(=O)N2CCCC2)CCC3)cc1 (mixture of isomers) [Example 502, (5S)-2-[(1 RS)-1-(4-Methylphenyl)ethyl]-5-(pyrrolidin-1-ylcarbonyl)-5,6,7,8-tetrahydro[1,2,4]triazolo[4,3-a]pyridin-3(2H)-one] | 4.1 |
| O=C([C@@H]1CCCc2nn(Cc3cc(F)c(F)cc3F)c(=O)n21)N1C[C@@H](F)[C@@H](F)C1 [Example 492, (5S)-5-{[(3R,4S)-3,4-Difluoropyrrolidin-1-yl]carbonyl}-2-(2,4,5-trifluorobenzyl)-5,6,7,8-tetrahydro[1,2,4]triazolo[4,3-a]pyridin-3(2H)-one] | 0.52 |
| CC1Cc2nn(Cc3ccc(C(F)(F)F)nc3)c(=O)n2C(C(=O)N2CCC(F)(F)C2)C1 (racemic) [Example 332, (5RS,7RS)-5-[(3,3-Difluoropyrrolidin-1-yl)carbonyl]-7-methyl-2-{[6-(trifluoromethyl)pyridin-3-yl]methyl}-5,6,7,8-tetrahydro[1,2,4]triazolo[4,3-a]pyridin-3(2H)-one] | 3.9 |
| N#C[C@@H]1CCCN1C(=O)[C@@H]1CCCc2nn(Cc3ccc(Cl)cn3)c(=O)n21 [Example 512, (2S)-1-({(5S)-2-[(5-Chloropyridin-2-yl)methyl]-3-oxo-2,3,5,6,7,8-hexahydro[1,2,4]triazolo[4,3-a]pyridin-5-yl}carbonyl)pyrrolidine-2-carbonitrile] | 0.15 |
| O=C(O)c1ccc(Cn2nc3n(c2=O)C(C(=O)N2CCCC2)CCC3)cc1 (racemic) [Example 154, 4-{[(5RS)-3-Oxo-5-(pyrrolidin-1-ylcarbonyl)-5,6,7,8-tetrahydro[1,2,4]triazolo[4,3-a]pyridin-2(3H)-yl]methyl}benzoic acid] | 790 |
| O=C(C1CCCc2nn(Cc3ccc(OC(F)(F)F)c(F)c3)c(=O)n21)N1CCCC1 (racemic) [Example 67, (5RS)-2-[3-Fluoro-4-(trifluoromethoxy)benzyl]-5-(pyrrolidin-1-ylcarbonyl)-5,6,7,8-tetrahydro[1,2,4]triazolo[4,3-a]pyridin-3(2H)-one] | 8.7 |
| O=C([C@@H]1CCCc2nn(Cc3ccc(F)c(Cl)c3)c(=O)n21)N1CC[C@H](O)C1 [Example 97, (5S)-2-(3-Chloro-4-fluorobenzyl)-5-{[(3S)-3-hydroxypyrrolidin-1-yl]carbonyl}-5,6,7,8-tetrahydro[1,2,4]triazolo[4,3-a]pyridin-3(2H)-one] | 6.5 |
| O=C(C1CC(C(F)(F)F)Cc2nn(Cc3ncc(F)cc3F)c(=O)n21)N1CCC(F)(F)C1 (single isomer, unassigned) [Example 574, (5RS,7RS)-2-[(3,5-Difluoropyridin-2-yl)methyl]-5-[(3,3-difluoropyrrolidin-1-yl)carbonyl]-7-(trifluoromethyl)-5,6,7,8-tetrahydro[1,2,4]triazolo[4,3-a]pyridin-3(2H)-one] | 5.2 |
| O=C([C@@H]1CCCc2nn(Cc3ncccc3Cl)c(=O)n21)N1CC[C@H](F)C1 [Example 393, (5S)-2-[(3-Chloropyridin-2-yl)methyl]-5-{[(3S)-3-fluoropyrrolidin-1-yl]carbonyl}-5,6,7,8-tetrahydro[1,2,4]triazolo[4,3-a]pyridin-3(2H)-one] | 1.4 |
| Cc1ccc(Cn2nc3n(c2=O)[C@H](C(=O)N2CCC[C@H]2C)CCC3)cc1 [Example 132, (5S)-2-(4-Methylbenzyl)-{[(2R)-2-methylpyrrolidin-1-yl]carbonyl}-5,6,7,8-tetrahydro[1,2,4]triazolo[4,3-a]pyridin-3(2H)-one] | 141 |
| O=C(C1CCCc2nn(Cc3ccc(C(F)(F)F)nc3)c(=O)n21)N1CCCC1 (racemic) [Example 84, (5RS)-5-(Pyrrolidin-1-ylcarbonyl)-2-{[6-(trifluoromethyl)pyridin-3-yl]methyl}-5,6,7,8-tetrahydro[1,2,4]triazolo[4,3-a]pyridin-3(2H)-one] | 5.7 |
| O=C([C@@H]1CCCc2nn(Cc3cc(C(F)(F)F)nc4ccccc34)c(=O)n21)N1CCCC1 [Example 76, (5S)-5-(Pyrrolidin-1-ylcarbonyl)-2-{[2-(trifluoromethyl)quinolin-4-yl]methyl}-5,6,7,8-tetrahydro[1,2,4]triazolo[4,3-a]pyridin-3(2H)-one] | 0.38 |
| O=C(C1CCCc2nn(Cc3ccc(Cl)s3)c(=O)n21)N1CCCC1 (racemic) [Example 53, (5RS)-2-[(5-Chloro-2-thienyl)methyl]-5-(pyrrolidin-1-ylcarbonyl)-5,6,7,8-tetrahydro[1,2,4]triazolo[4,3-a]pyridin-3(2H)-one] | 0.71 |
| O=C([C@@H]1CCCc2nn(Cc3ccnc(C(F)(F)F)n3)c(=O)n21)N1CCCC1 [Example 94, (5S)-5-(Pyrrolidin-1-ylcarbonyl)-2-{[2-(trifluoromethyl)pyrimidin-4-yl]methyl}-5,6,7,8-tetrahydro[1,2,4]triazolo[4,3-a]pyridin-3(2H)-one] | 57 |
| Cc1nonc1Cn1nc2n(c1=O)C(C(=O)N1CCCC1)CCC2 (racemic) [Example 60, (5RS)-2-[(4-Methyl-1,2,5-oxadiazol-3-yl)methyl]-5-(pyrrolidin-1-ylcarbonyl)-5,6,7,8-tetrahydro[1,2,4]triazolo[4,3-a]pyridin-3(2H)-one] | 18.5 |
| Cc1ccc(Cn2nc3n(c2=O)[C@H](C(=O)N2CC(F)C2)CCC3)cc1 [Example 113, (5S)-5-[(3-Fluoroazetidin-1-yl)carbonyl]-2-(4-methylbenzyl)-5,6,7,8-tetrahydro[1,2,4]triazolo[4,3-a]pyridin-3(2H)-one] | 0.42 |
| O=C([C@@H]1CCCc2nn(CC3(c4ccc(C(F)(F)F)cc4)CC3)c(=O)n21)N1CC[C@H](F)C1 [Example 356, (5S)-5-{[(3S)-3-Fluoropyrrolidin-1-yl]carbonyl}-2-({1-[4-(trifluoromethyl)phenyl]cyclopropyl}methyl)-5,6,7,8-tetrahydro[1,2,4]triazolo[4,3-a]pyridin-3(2H)-one] | 0.3 |
| O=C([C@@H]1CCCc2nn(Cc3ccc(F)c(Cl)c3)c(=O)n21)N1CCC(F)(F)C1 [Example 455, (5S)-2-(3-Chloro-4-fluorobenzyl)-5-[(3,3-difluoropyrrolidin-1-yl)carbonyl]-5,6,7,8-tetrahydro[1,2,4]triazolo[4,3-a]pyridin-3(2H)-one] | 0.77 |
| O=C(C1C(C(F)(F)F)CCc2nn(Cc3ccnc(C(F)(F)F)c3F)c(=O)n21)N1CC[C@H](F)C1 (mixture of isomers) [Example 280, (5RS,6RS)-5-{[(3S)-3-Fluoropyrrolidin-1-yl]carbonyl}-2-{[3-fluoro-2-(trifluoromethyl)pyridin-4-yl]methyl}-6-(trifluoromethyl)-5,6,7,8-tetrahydro[1,2,4]triazolo[4,3-a]pyridin-3(2H)-one] | 3.8 |
| O=C(C1CCCc2nn(Cc3ccc(Cl)cn3)c(=O)n21)N1CCC(F)(F)C1 (racemic) [Example 78, (5RS)-2-[(5-Chloropyridin-2-yl)methyl]-5-[(3,3-difluoropyrrolidin-1-yl)carbonyl]-5,6,7,8-tetrahydro[1,2,4]triazolo[4,3-a]pyridin-3(2H)-one] | 6 |
| O=C([C@@H]1CCCc2nn(Cc3cccc(Cl)n3)c(=O)n21)N1C[C@@H](F)[C@@H](F)C1 [Example 385, (5S)-2-[(6-Chloropyridin-2-yl)methyl]-5-{[(3R,4S)-3,4-difluoropyrrolidin-1-yl]carbonyl}-5,6,7,8-tetrahydro[1,2,4]triazolo[4,3-a]pyridin-3(2H)-one] | 1.8 |
